From ChEMBL document CHEMBL1124342, “N6-bicycloalkyladenosines with unusually high potency and selectivity for the adenosine A1 receptor” (J Med Chem, 1989)

Legend:
Adenosine receptor A1 = biological target: T1, Adenosine receptor A1 (Rattus norvegicus, UniProt P25099); experiment: Binding affinity against Adenosine A1 receptor using [3H]CHA in rat brain membranes; assay type: cell membranes
T1 sequence (P25099 whole entry): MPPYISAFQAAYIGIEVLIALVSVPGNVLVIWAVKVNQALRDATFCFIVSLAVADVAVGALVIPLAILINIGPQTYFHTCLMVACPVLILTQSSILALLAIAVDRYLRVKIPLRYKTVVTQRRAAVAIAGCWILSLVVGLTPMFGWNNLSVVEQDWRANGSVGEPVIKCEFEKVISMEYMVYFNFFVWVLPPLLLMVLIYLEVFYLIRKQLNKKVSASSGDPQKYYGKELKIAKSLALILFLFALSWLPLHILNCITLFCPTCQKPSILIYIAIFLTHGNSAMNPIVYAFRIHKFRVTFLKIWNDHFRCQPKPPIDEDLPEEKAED

Adenosine A2 receptor = Adenosine A2 receptor (Rattus norvegicus, UniProt P29276+P30543); experiment: Binding affinity against Adenosine A2 receptor using [3H]NECA with 50 nM CPA in rat striatal brain membranes; assay type: cell membranes, Membrane

SMILES	Ki (Adenosine receptor A1) [nM]	Ki (Adenosine A2 receptor) [nM]
OC[C@H]1O[C@@H](n2cnc3c(NC4C[C@H]5CC[C@@H]4C5)ncnc32)[C@H](O)[C@@H]1O (some centres undefined)	0.91	
OC[C@H]1O[C@@H](n2cnc3c(N[C@@H]4C[C@@H]5CC[C@H]4C5)ncnc32)[C@H](O)[C@@H]1O	1.65	
O[C@@H]1[C@H](O)[C@@H](CCl)O[C@H]1n1cnc2c(NC3CCCC3)ncnc21	0.72	1870
OC[C@H]1O[C@@H](n2cnc3c(NC4CC5CCC4C5)ncnc32)[C@H](O)[C@@H]1O (some centres undefined)	0.42	
OC[C@H]1O[C@@H](n2cnc3c(N[C@H]4CC5CCC4C5)ncnc32)[C@H](O)[C@@H]1O (single isomer, unassigned)	0.3	

Other lines, results leading:

Ki (Adenosine receptor A1) [nM]	Ki (Adenosine A2 receptor) [nM]	SMILES
	2100	O[C@@H]1[C@H](O)[C@@H](CCl)O[C@H]1n1cnc2c(NC3C[C@H]4CCC3C4)ncnc21 (some centres undefined)
	3000	O[C@@H]1[C@H](O)[C@@H](CCl)O[C@H]1n1cnc2c(N[C@@H]3C[C@@H]4CC[C@H]3C4)ncnc21
	3900	O[C@@H]1[C@H](O)[C@@H](CCl)O[C@H]1n1cnc2c(N[C@H]3C[C@H]4CCC3C4)ncnc21
